Here are results for two compounds from paper PMC6149822, “A New Series of Pyrrole-Based Chalcones: Synthesis and Evaluation of Antimicrobial Activity, Cytotoxicity, and Genotoxicity” (Molecules : A Journal of Synthetic Chemistry and Natural …, 2017).

Assay [1] has as its system C. krusei. Briefly: ATP luminescence microbial cell viability assay. It is filed as cell-based, Candida krusei. To be noted: 24 h treatment, result in words. As to the method:
A model from BioTek Instruments Inc. combined with a BacTiter-Glo^TM Microbial Cell Viability assay (Promega Corp., Madison, WI, USA) was used to provide a sensitive and rapid method for determining the number of viable microbial cells in culture based on quantitation of the ATP present. […] After incubation, cultures were added into the wells (final concentration of bacteria was 5 × 10^5 CFU/mL and 2.5 × 10^6 CFU/mL for yeasts). After adding the BacTiter reagent, incubation time for bacteria and yeasts was 5 min and 15 min, respectively.
The assay generates a “glow-type” luminescent signal, produced by the luciferase reaction. Briefly, after chemicals and strains were incubated for 24 h, 100 µL of the culture was taken from each well and mixed with the same volume of the BacTiter-Glo™ reagent in a white, opaque-walled microtiter plate. Control wells containing medium without cells were prepared to obtain a value for background luminescence. Cells without compound were used as an ATP-positive control. The microplates were further incubated under agitation for 7 min. Bioluminescence was recorded in a multi-detection microplate reader (BioTek Synergy 2 Multi-Mode Microplate Reader, BioTek Instruments, Winooski, VT, USA). […] Experiments were performed in triplicate and each sample was measured in four replicates.

Assay [2] relates to C. albicans (ATCC 90028). The assay can be described thus: Microdilution susceptibility assay (MIC). Particulars: Candida albicans, ATCC90028. In kind it is cell-based. Here is the method: (§1) Compounds 1–10 were screened for their antimicrobial activity against gram-negative bacteria, gram-positive bacteria, and yeasts, listed in Table 1. Bacteria were grown in Mueller-Hinton Broth and yeasts were grown in Sabouraud Dextrose Broth (SDB) during experiments. Overnight cultures were prepared routinely by subculturing of stock culture onto Mueller-Hinton Agar for bacteria and Sabouraud Dextrose Agar for yeasts.
(§2) Microdilution susceptibility assay was used for the determination of antibacterial and anticandidal efficacy of compounds 1–10. Chloramphenicol and ketoconazole were used as positive controls for bacteria and yeasts, respectively. All experiments were designed according to the Clinical Laboratory Standards Institute (CLSI). All chemicals were dissolved in dimethyl sulfoxide (DMSO) to obtain stock solution (10 mg/mL). Two-fold serial dilutions (800, 400, 200...0.78 µg/mL) of the compounds were prepared from stock solutions with dH2O. 100 µL of each solution was transferred to 96-well microtiter plates and 100 µL of 10^6 CFU/mL of bacteria and 2 × 10^3 of CFU/mL yeast were added to related wells. As negative controls, wells including microorganisms without agents and wells including agents without microorganisms were used. The plates were kept at 35 °C for 18–20 h and the growth was determined with resazurin (20 mg/mL). Assays were carried out in triplicate.
In general terms: Broth dilution looks for growth in wells or tubes with falling amounts of substance.

For assay [3], the system named is S. aureus (ATCC 25923). The assay can be described thus: Microdilution susceptibility assay (MIC). In kind it is cell-based. To be noted: Staphylococcus aureus, ATCC25923. Here is the method: as §1, §2
Assay [4] relates to E. coli (ATCC 25922). The assay can be described thus: Microdilution susceptibility assay (MIC). In kind it is cell-based. Particulars: Escherichia coli, ATCC25922. Here is the method:
as §1, §2

For assay [5], the system named is E. faecalis (ATCC 51299). The assay can be described thus: Microdilution susceptibility assay (MIC). It is filed as cell-based. Particulars: Enterococcus faecalis, ATCC51299. As to the method: as §1, §2
Assay [6] relates to E. faecalis (ATCC 29212). The assay can be described thus: Microdilution susceptibility assay (MIC). It is filed as cell-based. To be noted: Enterococcus faecalis, ATCC29212. As to the method:
as §1, §2

Assay [7] concerns K. pneumoniae (ATCC 700603). The assay can be described thus: Microdilution susceptibility assay (MIC). It is filed as cell-based. To be noted: Klebsiella pneumoniae, ATCC700603. As to the method: as §1, §2
Assay [8] relates to C. krusei cells. Briefly: Flow cytometry live/dead analysis (TO/PI). It is filed as cell-based, Candida krusei. Particulars: 25 µg/mL, 4 h. From the text:
In order to investigate the effects of compounds 7 and 9 on the integrity of C. krusei cells, flow cytometry was used with BD cell viability kits. Live cells are impermeable to dyes such as PI since they have intact membranes. TO is a permeant dye and enters live and dead cells to varying degrees. The fluorescent signal from TO in viable cells allows their enumeration, even when debris in the cell preparation contaminates a scatter gate around the cells. Thus, the combination of these two dyes provides a rapid and reliable method for discriminating live and dead eukaryotic cells, including yeasts. All steps were performed according to manufacturers’ recommendations. Briefly, Candida cells were cultured at 35 °C in SDB until late log phase. The cells were centrifuged and washed with phosphate-buffered saline (PBS) at pH = 7.0. Suspensions containing 2 × 10^3 cells/mL were incubated with compounds 7 and 9, and ketoconazole as a reference drug, for 4 h at 35 °C, with shaking (200 r.p.m.). […] Suspensions of treated and untreated cells were incubated for 30 min in the presence of 2 µL of PI and 2 µL of TO, in the dark, at room temperature. The cell suspensions were analysed in a BD Accuri C6 flow cytometer (Becton-Dickinson, Mansfield, MA, USA). The cell scattergram (forward scatter: FS, side scatter: SS), the autofluorescence (without fluorocrome), and the intensity of fluorescence at FL1 (green fluorescence, 525 nm) and FL2 (red fluorescence, 620 nm) were recorded using a logarithmic scale.
For orientation: Flow cytometry measures light scatter and fluorescence of single cells or particles in a stream.

Assay [9] relates to C. parapsilosis (ATCC 22019). The assay can be described thus: Microdilution susceptibility assay (MIC). In kind it is cell-based, Candida parapsilosis. To be noted: Lodderomyces parapsilosis, ATCC22019. Here is the method: as §1, §2
The subject of assay [10] is A549 human lung adenocarcinoma cell line. The assay can be described thus: MTT assay. It is filed as cell-based. To be noted: Homo sapiens, A549. As to the method:
The anticancer effects of compounds 1–10 on A549 human lung adenocarcinoma (ATCC® CCL-185™), HepG2 human hepatocellular carcinoma (ATCC® HB-8065™), and C6 rat glioma (ATCC® CCL107™) cell lines were assessed using 3-(4,5-Dimethylthiazol-2-yl)-2,5-diphenyltetrazolium bromide (MTT) assay, whereas the selectivity of compounds 1–10 was tested using NIH/3T3 mouse embryonic fibroblast cell line (ATCC® CRL-1658™, London, UK). All cell lines were incubated according to the supplier’s recommendations. The cells were seeded as 1 × 10^4 cells into each well of the 96-well plates. MTT assay was performed as previously described. The compounds were tested between the concentrations equal to 1 mM and 0.000316 mM (1.0, 0.316, 0.10, 0.0316, 0.01, 0.00316, 0.001, 0.000316 mM). Stock solutions of compounds were prepared in dimethyl sulfoxide (DMSO) and further dilutions were made with fresh culture medium. The final DMSO concentration was under 1% [34] and cisplatin was used as a positive control. Inhibition % was calculated for each concentration according to the formula below, and IC50 values were determined by plotting a dose–response curve of inhibition % versus compound concentrations tested. All experiments were performed in quadruplicate.Inhibition % = 100 − [(ODtest compound − ODblank/ODsolvent control − ODblank)] × 100(1)
(Tetrazolium assays rely on reduction of a dye to a coloured formazan, in cell work by metabolically active cells.)

Assay [11] deals with C. krusei (ATCC 6258). The assay can be described thus: Microdilution susceptibility assay (MIC). In kind it is cell-based, Candida krusei. Particulars: Pichia kudriavzevii, ATCC6258. As to the method:
as §1, §2

The test system of assay [12] is C. glabrata (ATCC 90030). The assay can be described thus: Microdilution susceptibility assay (MIC). It is filed as cell-based, Candida glabrata. To be noted: Nakaseomyces glabratus, ATCC90030. Here is the method: as §1, §2

Molecules are shown by their SMILES. ≈ marks a conversion by molar mass, not a printed value.

A word on the MIC: it is the lowest concentration that inhibits growth of the organism. A high value points to a need for much substance. By IC50 is commonly meant the midpoint of a concentration-inhibition curve. The low end stands for greater potency, the high end for weaker potency.

As to `Cn1cccc1C(=O)C=Cc1ccc(-c2ccc(Cl)cc2)o1` [Compound 7, 1-(1-Methyl-1H-pyrrol-2-yl)-3-(5-(4-chlorophenyl)furan-2-yl)prop-2-en-1-one], the “antifungal activity in ATP bioluminescence assay” value in assay [1] was “more statistically significant antifungal activity against C. krusei than ketoconazole”. Besides, the MIC worked out at 50 µg/mL (≈ 160 µM) in [2]; 400 µg/mL (≈ 1280 µM) in assay [3]; 400 µg/mL (≈ 1280 µM) in assay [4]; 200 µg/mL (≈ 642 µM) in assay [5]; 100 µg/mL (≈ 321 µM) in assay [6]; 100 µg/mL (≈ 321 µM) in [7]. The values for the MIC in assay [9], in [11] and in [12] were 100 µg/mL (≈ 321 µM), 25 µg/mL (≈ 80.2 µM) and 100 µg/mL (≈ 321 µM), respectively. Besides, the “Dead Cell %” value in assay [8] was 20.0%. Also, the “Live Cell %” value in assay [8] amounted to 79.6%. The IC50 in assay [10] worked out at 98 µg/mL (≈ 314 µM).

Regarding `Cn1cccc1C(=O)C=Cc1ccc(-c2cc(Cl)ccc2Cl)o1` [Compound 9, 1-(1-Methyl-1H-pyrrol-2-yl)-3-(5-(2,5-dichlorophenyl)furan-2-yl)prop-2-en-1-one], the “antifungal activity in ATP bioluminescence assay” value in [1] is “more statistically significant antifungal activity against C. krusei than ketoconazole”. Besides, the MIC in [2] came to 200 µg/mL (≈ 578 µM); in assay [3], 200 µg/mL (≈ 578 µM); in assay [4], 100 µg/mL (≈ 289 µM); in assay [5], 400 µg/mL (≈ 1160 µM); in assay [6], 200 µg/mL (≈ 578 µM); in assay [7], 200 µg/mL (≈ 578 µM). The MIC worked out at 50 µg/mL (≈ 144 µM) in assay [9], 25 µg/mL (≈ 72.2 µM) in assay [11] and 100 µg/mL (≈ 289 µM) in [12]. Further, the “Dead Cell %” value in assay [8] is on record as 15.9%. Further, the “Live Cell %” value in assay [8] was found to be 83.9%. In assay [10], the IC50 is greater than 346 µg/mL.
